Tests used:
HeLa cells = test: Flow cytometry cell cycle analysis by PI staining; type: cell-based, human; conditions: 48 h, complexes at IC50, cis-platin 5 μM
Protocol: A flow cytometer was also used to do the apoptotic assessment. HeLa cells (5 × 10^5) were seeded onto 6-well plates using Dulbecco's Modified Eagle Medium paper (DMEM) with 10% FBS. The plates were incubated overnight at 37 °C with 95% air and 5% CO2. […] Following trypsinization, the cells were collected, cleaned with PBS, and fixed for 24 hours at 2–6 °C in ice-cold 70% ethanol. Centrifugation was used to remove the ethanol, and cold PBS was used twice to wash the cell pellets. Later the cells were stained with propidium iodide (PI, 1 mg mL^−1) and incubated for 30 min. Flow cytometric analysis was performed using a FACS scanner and the Becton Dickinson cell search program at 595 nm and the distribution of cells in various cell cycle phases was determined.[69,70]
Through cell cycle analysis, the mechanism of cancer cell death caused by the complexes was evaluated. Anticancer drugs promote growth-inhibitory action in cancer cells by a variety of mechanisms, one of which is dysfunction in the regulation of the cell cycle.[32] For example, cis-platin inhibits DNA transcription in cells by stopping the cell cycle in the S and G2/M phases. PI staining and flow cytometry were used to examine the ability of the complexes to modify the cell cycle (Fig. 19).

CT-DNA = conditions: constant used in eqn (6); no reference given; cited from earlier work

| SMILES | G0/G1 phase (HeLa cells) | M Phase (HeLa cells) | S Phase (HeLa cells) | Sub-G0 phase (HeLa cells) | KEtBr, DNA binding constant of EB (CT-DNA) |
| --- | --- | --- | --- | --- | --- |
| N.N.[Cl][Pt][Cl] [Cis-platin, cis-platin, reference compound] | 27.12% | 17.52% | 10.11% | 45.25% | – |
| CC[n+]1c(-c2ccccc2)c2cc(N)ccc2c2ccc(N)cc21 [EB, ethidium bromide] | – | – | – | – | 1e+07 M⁻¹ |

Reference: paper PMC12264794, “Homoleptic complexes of titanium(IV) fused with O^N^O Schiff base derivatives: design, BSA–DNA interaction, molecular docking, DFT and cytotoxicity” (RSC Advances, 2025)
